Results from ChEMBL document CHEMBL4177699, “Organoselenium compounds from purines: Synthesis of 6-arylselanylpurines with antioxidant and anticholinesterase activities and memory improvement effect” (Bioorg Med Chem, 2017).
Active and inactive are the calls of the source. The calls are words filed in the database; no cut-off is given here.

Key:
[1] = Antioxidant activity assessed as DPPH radical scavenging activity at 1 uM after 30 mins (reference value: 100%); assay type: functional
[2] = Antioxidant activity assessed as DPPH radical scavenging activity at 10 uM after 30 mins (reference value: 100%); assay type: functional
[3] = Antioxidant activity assessed as DPPH radical scavenging activity at 100 uM after 30 mins (reference value: 100%); assay type: functional
[4] = Antioxidant activity assessed as DPPH radical scavenging activity at 200 uM after 30 mins (reference value: 100%); assay type: functional
[5] = Antioxidant activity assessed as ABTS radical scavenging activity at 1 uM after 30 mins (reference value: 100%); assay type: functional
[6] = Antioxidant activity assessed as ABTS radical scavenging activity at 10 uM after 30 mins (reference value: 100%); assay type: functional
[7] = Antioxidant activity assessed as ABTS radical scavenging activity at 100 uM after 30 mins (reference value: 100%); assay type: functional
[8] = Antioxidant activity assessed as ABTS radical scavenging activity at 200 uM after 30 mins (reference value: 100%); assay type: functional
[9] = biological target: T1, Acetylcholinesterase (Mus musculus) (UniProt P21836); experiment: (§1) Inhibition of AChE in Swiss mouse cerebral cortex homogenate using acetylthiocholine as substrate assessed as acetylthiocholine level per mg protein at 1 uM preincubated for 2 mins followed by substrate addition by DTNB based assay (reference value: 9.6 +/- 0.5 umol/hr)
T1 sequence (whole entry): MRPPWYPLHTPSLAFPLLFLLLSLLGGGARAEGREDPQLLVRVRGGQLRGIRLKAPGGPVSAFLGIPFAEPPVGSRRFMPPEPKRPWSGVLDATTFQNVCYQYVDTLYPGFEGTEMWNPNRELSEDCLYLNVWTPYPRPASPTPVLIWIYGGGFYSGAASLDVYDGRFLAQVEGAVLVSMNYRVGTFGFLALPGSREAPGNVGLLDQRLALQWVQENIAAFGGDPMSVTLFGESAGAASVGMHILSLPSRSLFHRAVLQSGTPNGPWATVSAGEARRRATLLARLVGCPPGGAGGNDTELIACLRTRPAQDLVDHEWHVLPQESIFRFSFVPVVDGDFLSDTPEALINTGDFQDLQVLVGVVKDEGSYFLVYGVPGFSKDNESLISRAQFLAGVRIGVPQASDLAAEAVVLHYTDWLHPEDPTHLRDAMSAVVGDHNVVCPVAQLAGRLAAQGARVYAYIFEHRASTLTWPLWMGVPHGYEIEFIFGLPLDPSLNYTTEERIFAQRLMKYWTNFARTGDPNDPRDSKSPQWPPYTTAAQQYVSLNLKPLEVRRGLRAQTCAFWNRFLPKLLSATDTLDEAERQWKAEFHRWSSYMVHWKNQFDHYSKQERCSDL

[10] = biological target: T1, Acetylcholinesterase (Mus musculus); experiment: Inhibition of AChE in Swiss mouse cerebral cortex homogenate using acetylthiocholine as substrate assessed as acetylthiocholine level per mg protein at 10 uM preincubated for 2 mins followed by substrate addition by DTNB based assay (reference value: 9.6 +/- 0.5 umol/hr)
[11] = biological target: T1, Acetylcholinesterase (Mus musculus); experiment: as §1, with “100” for “1”, “umol/hr) (reference value: 9.6 +/- 0.5 umol/hr)” for “umol/hr)”
[12] = biological target: T1, Acetylcholinesterase (Mus musculus); experiment: Inhibition of AChE in Swiss mouse cerebral cortex homogenate using acetylthiocholine as substrate assessed as acetylthiocholine level per mg protein at 200 uM preincubated for 2 mins followed by substrate addition by DTNB based assay (reference value: 9.6 +/- 0.5 umol/hr)
[13] = biological target: T1, Acetylcholinesterase (Mus musculus); experiment: Inhibition of AChE in Swiss mouse cerebral cortex homogenate using acetylthiocholine as substrate assessed as acetylthiocholine level per mg protein at 1 uM preincubated for 2 mins followed by substrate addition by DTNB based assay relative to acetylthiocholine
Mus musculus [14] = experiment: Cognitive enhancement activity in Swiss mouse assessed as step-through latency at 10 mg/kg, ig treated 30 mins before training measured 24 hrs after training trial by passive avoidance test; assay type: functional, organism-based
Mus musculus [15] = experiment: Cognitive enhancement activity in Swiss mouse assessed as increase in step-through latency at 10 mg/kg, ig treated immediately post-training measured 24 hrs after training trial by passive avoidance test relative to control; assay type: functional
Mus musculus [16] = experiment: Cognitive enhancement activity in Swiss mouse assessed as increase in step-through latency at 10 mg/kg, ig treated 30 mins before test session measured 24 hrs after training trial by passive avoidance test relative to control; assay type: functional
Mus musculus [17] = experiment: Toxicity in Swiss mouse assessed as impairment in locomotory activity at 10 mg/kg, ig treated 30 mins before training measured up to 4 mins by open-field test; assay type: organism-based; conditions: in vivo, po
Mus musculus [18] = experiment: Toxicity in Swiss mouse assessed as impairment in locomotory activity at 10 mg/kg, ig treated immediately post-training measured up to 4 mins by open-field test; assay type: organism-based; conditions: in vivo, po
Mus musculus [19] = experiment: Toxicity in Swiss mouse assessed as impairment in locomotory activity at 10 mg/kg, ig treated 30 mins before test session measured up to 4 mins by open-field test; assay type: organism-based; conditions: in vivo, po
Mus musculus [20] = experiment: Toxicity in Swiss mouse assessed as impairment in exploratory behavior at 10 mg/kg, ig treated 30 mins before training measured up to 4 mins by open-field test; assay type: organism-based; conditions: in vivo, po
Mus musculus [21] = experiment: Toxicity in Swiss mouse assessed as impairment in exploratory behavior at 10 mg/kg, ig treated immediately post-training measured up to 4 mins by open-field test; assay type: organism-based; conditions: in vivo, po
Mus musculus [22] = experiment: Toxicity in Swiss mouse assessed as impairment in exploratory behavior at 10 mg/kg, ig treated 30 mins before test session measured up to 4 mins by open-field test; assay type: organism-based; conditions: in vivo, po
[23] = biological target: T1, Acetylcholinesterase (Mus musculus); experiment: Inhibition of AChE in Swiss mouse cerebral cortex homogenate using acetylthiocholine as substrate assessed as acetylthiocholine level per mg protein at 200 uM preincubated for 2 mins followed by substrate addition by DTNB based assay relative to acetylthiocholine

SMILES	Activity [1] [%]	Activity [2] [%]	Activity [3] [%]	Activity [4] [%]	Activity [5] [%]	Activity [6] [%]	Activity [7] [%]	Activity [8] [%]	Activity [9] [µmol/h]	Activity [10] [µmol/h]	Activity [11] [µmol/h]	Activity [12] [µmol/h]	also measured
Cc1ccc([Se]c2ncnc3[nH]cnc23)cc1	101	99.7	96.3	93	100	98	81.7	61.5	8.7	9.3	8.9	8.9	–
Fc1ccc([Se]c2ncnc3[nH]cnc23)cc1	99.4	99.4	98.6	98	99.7	101	99.7	96.9	6.6	6.5	6.6	6.6	Imax [13]: 31.2%; Activity (Mus musculus [14]): inactive; Activity (Mus musculus [15]): 52%; Activity (Mus musculus [16]): 44%; Activity (Mus musculus [17]): Non-Toxic; Activity (Mus musculus [18]): Non-Toxic; Activity (Mus musculus [19]): Non-Toxic; Activity (Mus musculus [20]): Non-Toxic; Activity (Mus musculus [21]): Non-Toxic; Activity (Mus musculus [22]): Non-Toxic
c1ccc([Se]c2ncnc3[nH]cnc23)cc1	99.4	99.4	95.1	90.1	99.9	98.8	93.2	86.5	7.8	7.6	7.7	7.6	–
COc1ccc([Se]c2ncnc3[nH]cnc23)cc1	99.8	99.7	98.5	97.5	101	98.1	97.1	93.5	10.4	11.3	11	8.8	–
FC(F)(F)c1cccc([Se]c2ncnc3[nH]cnc23)c1	99.7	99.4	99.4	99	99.4	98.9	97.9	97.6	7.9	8.9	8.2	8.2	–
Clc1ccc([Se]c2ncnc3[nH]cnc23)cc1	100	98.8	85.9	68	99.5	98.4	86.5	72.6	7.2	7.3	7.8	7.8	–
Cc1ccccc1[Se]c1ncnc2[nH]cnc12	100	100	99.3	98.7	99.3	96.9	97.7	94.8	7.9	7.6	7.1	6.3	Imax [23]: 34.4%
